Entries after “also recorded” stand apart in the source; their conditions may differ.
How the values were obtained:
[1] = system: human subjects with a history of nephrolithiasis; experiment: Adverse events and discontinuations in the double-blind and open-label febuxostat study; format: in vivo
Protocol: (1) febuxostat 40 mg per day, (2) febuxostat 80 mg per day, (3) febuxostat 120 mg per day, or (4) placebo. Subjects completing the double-blind study entered an open-label, long-term study and began treatment with 80 mg febuxostat per day. Febuxostat doses could be titrated over the initial 6 months to 40 mg or 120 mg febuxostat per day based on the subjects' serum urate levels and the occurrence of adverse events.

remnant kidney (RK) rats [2] = experiment: Renal arteriolar morphology; format: in vivo, Male Wistar rats
Protocol: Male Wistar rats (295-340 g) were used to produce rats with remnant kidney (RK) as follows. […] Rats were then assigned to one of four treatment groups: Group 1, RK control rats (n=7); Group 2, RK+febuxostat (Fx) rats (n=8); Group 3, RK+oxonic acid (OA) rats (n=6); and Group 4, RK+OA+Fx (n=10). Oxonic acid (OA) (Sigma-Aldrich, St Louis Mo., USA), administered at 750 mg/kg body weight daily by oral gavage, was given starting the day after the 5⁄6 nephrectomy. Beginning immediately following the surgery, febuxostat was administered in drinking water at 30 mg/L (3-4 mg/kg/day), whereas the respective controls received only drinking water (with 3.5 mg/L of NaCl added to keep an equivalent salt concentration to the Fx-containing water). After the micropuncture study, kidneys were washed by perfusion with phosphate-buffered saline and then fixed with 4% paraformaldehyde. Renal biopsies were embedded in paraffin. Sections of 4-μm thick fixed tissue were stained with periodic acid Schiff (PAS) reagent and Masson's trichrome staining. Arteriolar morphology was assessed by indirect peroxidase immunostaining for alpha-smooth muscle actin (DAKO Corp, Carpinteria, Calif., USA). Renal sections incubated with normal rabbit serum were used as negative controls for immunostaining against alpha smooth-muscle actin. For each arteriole, the outline of the vessel and its internal lumen (excluding the endothelium) were generated using computer analysis to calculate the total medial area (outline inline), in 10 arterioles per biopsy. The media/lumen ratio was calculated by the outline/inline relationship (See, Sanchez-Lozada L G et al., “Mild hyperuricemia induces glomerular hypertension in normal rats”, Am J Physiol Renal Physiol 283:[…]-[…] (2002); Sanchez-Lozada L G, et al., “Mild hyperuricemia induces vasoconstriction and maintains glomerular hypertension in normal and remnant kidney rats,” Kidney Int 67:237-247 (2005), the contents of each are herein incorporated by reference). Quantifications were performed blinded.

remnant kidney (RK) rats [3] = experiment: Systolic blood pressure by tail cuff in conscious remnant kidney rats; format: in vivo, Male Wistar rats; conditions: all four groups, after four weeks; corroborated by mean arterial pressure under anesthesia
Protocol: Male Wistar rats (295-340 g) were used to produce rats with remnant kidney (RK) as follows. […] Rats were then assigned to one of four treatment groups: Group 1, RK control rats (n=7); Group 2, RK+febuxostat (Fx) rats (n=8); Group 3, RK+oxonic acid (OA) rats (n=6); and Group 4, RK+OA+Fx (n=10). Oxonic acid (OA) (Sigma-Aldrich, St Louis Mo., USA), administered at 750 mg/kg body weight daily by oral gavage, was given starting the day after the ⅚ nephrectomy. […] Body weight (beginning just before surgery) and food and water intakes were measured daily. Systolic blood pressure, measured in conscious rats by a tail cuff sphygmomanometer, and plasma uric acid (UA) levels were measured at just before surgery (namely, at baseline) and at the end of the four weeks. Proteinuria was measured at baseline and at the end of two and four weeks. […] Food and water intake were determined daily. Systolic blood pressure (SBP) was measured by a tail-cuff sphygmomanometer using an automated system (XBP-100; Kent Scientific Co, Torrington, Conn., USA) in conscious animals. […] Plasma uric acid was quantified using a commercial kit (Diagnostic Chemicals Ltd, Charlottetown, PEI, Canada). […]

remnant kidney (RK) rats [4] = experiment: Tubulointerstitial fibrosis quantification; format: in vivo, Male Wistar rats; conditions: febuxostat in both RK and RK+OA rats
Protocol: Male Wistar rats (295-340 g) were used to produce rats with remnant kidney (RK) as follows. […] Rats were then assigned to one of four treatment groups: Group 1, RK control rats (n=7); Group 2, RK+febuxostat (Fx) rats (n=8); Group 3, RK+oxonic acid (OA) rats (n=6); and Group 4, RK+OA+Fx (n=10). Oxonic acid (OA) (Sigma-Aldrich, St Louis Mo., USA), administered at 750 mg/kg body weight daily by oral gavage, was given starting the day after the ⅚ nephrectomy. […] Arteriolar morphology was assessed by indirect peroxidase immunostaining for alpha-smooth muscle actin (DAKO Corp, Carpinteria, Calif., USA). […] The degree of tubulointerstitial fibrosis was quantified in 10 non-crossed fields of cortex (100×) per biopsy. Slides were analyzed by light microscopy (Olympus BX51; Olympus American, Melville, N.Y., USA) and captured by a digital video camera (CoolSnap Pro; Media Cybernetics, Silver Spring, Md., USA). Pictures were processed on a computer and analyzed using Image Pro-Plus (version 5.0; Media Cybernetics, Silver Spring, Md., USA). Taking advantage of the capabilities of color recognition with this software, positive blue-stained areas (fibrosis) were selected and quantified in pixel units; glomeruli and vessels were previously excluded from the field. For each biopsy, the mean amount of positive blue-stained area was calculated by averaging the values from ten examined fields.

[5] = number of subjects, N = 18, open-label study

Cc1nc(-c2ccc(OCC(C)C)c(C#N)c2)sc1C(=O)O [febuxostat, 2-[3-cyano-4-(2-methylpropoxy)phenyl]-4-methylthiazole-5-carboxylic acid]
Diarrhea (excluding infectious) [1, 5]: 7 | Edema NEC [1, 5]: 3 | Gastrointestinal and Abdominal Pains (excluding oral and throat) [1, 5]: 3 | Joint Related Signs and Symptoms [1, 5]: 6 | Lower Respiratory Tract and Lung Infections [1, 5]: 5 | Musculoskeletal and Connective Tissue Signs and Symptoms NEC [1, 5]: 5 | Non-Site Specific Injuries [1, 5]: 4 | Rashes, Eruptions and Exanthems NEC [1, 5]: 3 | Total Subjects with ≧1 AE [1, 5]: 17 | Upper Respiratory Infections [1, 5]: 12 | Urinary Tract Infections [1, 5]: 3 | Serum creatinine at Withdrawal (adverse event Increased Creatinine) ([1]; one subject, open-label, Baseline: 1.6 mg/dL): 2.1 mg/dL | Serum creatinine at Follow-up (adverse event Increased Creatinine) ([1]; one subject, Follow-up Day 163, two weeks off study medication): 1.9 mg/dL | Thickening of preglomerular vessels / afferent arteriole (in words) (remnant kidney (RK) rats [2]; RK rats vs RK control group): prevented the thickening of preglomerular vessels | Additional thickening of the afferent arteriole (in words) (remnant kidney (RK) rats [2]; RK+OA rats treated with febuxostat): prevented | Media/lumen (M/L) ratio (in words) (remnant kidney (RK) rats [2]; febuxostat-treated rats vs respective untreated cohorts): no statistically significant differences; also recorded: tendency for the M/L ratio to be lower | Systolic blood pressure (in words) (remnant kidney (RK) rats [3]): developed systemic hypertension to approximately the same degree | Tubulointerstitial (TI) fibrosis (in words) (remnant kidney (RK) rats [4]): significantly decreased
